23 molecules from patent US20070142397A2, “PHENYPIPERAZINE DERIVATIVES WITH A COMBINATION OF PARTIAL DOPAMINE-D2 RECEPTOR AGONISM AND SEROTONIN REUPTAKE INHIBITION” (SOLVAY PHARMECEUTICALS B.V., priority 2004, published 2007) can be followed below.

For one data set, the target named is T1, dopamine-D2 receptors (Rattus norvegicus, UniProt P61169).
T1 construct: labels dopamine receptors in rat pituitary and brain; from tissue; host or cells: rat brain / pituitary membranes (from the title of the cited method)
Put plainly: In vitro affinity for dopamine-D2 receptors ([3H]-spiroperidol receptor binding assay, Creese et al.). The procedure: In Vitro Affinity for Dopamine-D2 Receptors
Affinity of the compounds for dopamine-D2 receptors was determined using the receptor binding assay described by I. Creese, R. Schneider and S. H. Snyder: “[^3H]-Spiroperidol labels dopamine receptors in rat pituitary and brain”, Eur. J. Pharmacol., 46, 377-381, 1977.
(§1) The affinity of the compounds of the invention for dopamine-D2 receptors and serotonine reuptake sites was determined as described above. From the binding affinity measured for a given compound of formula (1), one can estimate a theoretical lowest effective dose. At a concentration of the compound equal to twice the measured Ki-value, 100% of the receptors likely will be occupied by the compound. Converting that concentration to mg of compound per kg of patient yields a theoretical lowest effective dose, assuming ideal bioavailability. Pharmacokinetic, pharmacodynamic, and other considerations may alter the dose actually administered to a higher or lower value. The dosage expediently administered is 0.001-1000 mg/kg, preferably 0.1-100 mg/kg of patient's bodyweight.

In data set [1] the target is T2, Human dopamine D2,L receptors (Homo sapiens, UniProt P14416).
T2 construct: host or cells: CHO-K1
Put plainly: Inhibition of forskolin-induced [3H]-cAMP accumulation in CHO-K1 cells. The format is cell-based. As to conditions: Cloned human dopamine D2,L receptors, full agonist ε=1, full antagonist ε=0. On the procedure:
Inhibition of Forskolin-Induced [^3H]-cAMP Accumulation
The in vitro functional activity at dopamine-D2 receptors, including the intrinsic activity (ε) of the compounds of the invention was measured by their ability to inhibit forskolin-induced [^3H]-cAMP accumulation.
Human dopamine D2,L receptors were Cloned in fibroblast cell line CHO-K1 cells and obtained from Dr. Grandy, Vollum Institute, Portland, Oreg., USA. CHO cells were grown in a Dulbecco's modified Eagle's medium (DMEM) culture medium, supplemented with 10% heat-inactivated fetal calf serum, 2 mM glutamine, 1 mM pyruvate, 5000 units/ml penicillin, 5000 μg/ml streptomycin and 200 μg/ml G-418 at 37° C. in 93% air/7% CO2. For incubation with test compounds, confluent cultures grown in 24 wells plates were used. Each condition or substance was routinely tested in quadruplicate. Cells were loaded with 1 μci [^3H]-adenine in 0.5 ml medium/well. After 2 hours, cultures were washed with 0.5 ml PBS containing 1 mM of the phospho-diesterase inhibitor isobutylmethylxanthine (IBMX) and incubated for 20 min with 0.5 ml PBS containing 1 mM IBMX and forskolin with or without test compound. After aspiration the reaction was stopped with 1 ml trichloroacetic acid 5% (w/v). […] 0.8 ml Extract was passed over Dowex (50WX-4 200-400 mesh) and aluminumoxide columns, eluted with water and 0.1M imidazole (pH=7.5). Eluates were mixed with 7 ml Insta-gel and radioactivity was counted with a liquid scintillation counter. The conversion of [^3H]-ATP into [^3H]-cAMP was expressed as the ratio in percentage radioactivity in the cAMP fraction as compared to combined radioactivity in both cAMP and ATP fractions, and basal activity was subtracted to correct for spontaneous activity.
Test compounds were obtained as 10 mM stock solutions in 100% DMSO, and diluted in PBS/IBMX to final concentrations. Typically, compounds were used in concentrations that ranged from 10^−10M to 10^−5M. From quadruplicate data counts, the mean was taken as an estimate for drug-induced, receptor-mediated effects at specified second messenger accumulation, expressed as percentage of control values (forskolin-stimulated cAMP accumulation, subtracted by basal activity). By using the non-linear curve-fitting program INPLOT or the Excel-add-in XL-Fit, mean values were plotted against drug concentration (in molar) and a sigmoid curve (four-parameter logistic curve) was constructed. The maximal forskolin-induced stimulated conversion is taken as maximum value and the maximal inhibition (usually at drug concentrations 10^−6 M or 10^−5 M) as minimum and these values were fixed during the fitting process. Thus, concentrations of the compound, causing 50% of the maximally obtained inhibition of forskolin-induced cAMP accumulation (EC50), are averaged over several experiments and presented as mean pEC50±SEM. Antagonist potency is assessed by co-incubating cells with a fixed agonist concentration and specified antagonist concentrations. Curve fitting procedures are identical to those used for estimating EC50 values. Thus IC50 values, i.e. the concentration that is able to achieve 50% of maximal antagonism that can be achieved by this compound. IC50 values are corrected using a Cheng-Prussoff equation, correcting it for agonist concentration and EC50 values that is obtained in the same experiment. Thus, Kb=IC50/(1+[agonist]/EC50, agonist).The corresponding pA2 value is −log (Kb). Concentration-response curve fitting allows estimation of pEC50 values and of maximal achievable effect (intrinsic activity or efficacy (ε). A full receptor agonist has ε=1, a full receptor antagonist has ε=0, and a partial receptor agonist has an intermediate intrinsic activity.
For orientation: Changes in cAMP serve as a functional read-out for many G protein-coupled receptors.

The next data set deals with T3, serotonin reuptake sites (Rattus norvegicus, UniProt P31652).
T3 construct: from tissue; host or cells: rat cortical membranes (from the title of the cited method)
In words: In vitro affinity for serotonin reuptake sites ([3H]-paroxetine binding assay, Habert et al.). The procedure: In Vitro Affinity for Serotonin Reuptake Sites
Affinity of the compounds for serotonin reuptake sites was determined using the receptor binding assay described by E. Habert et al.,: “Characterisation of [^3H]-paroxetine binding to rat cortical membranes”, Eur. J. Pharmacol., 118, 107-114, 1985.
as §1

[2] abbreviates: receptor binding, read-out: Dopamine-D2 binding pKi (converted).
Where [3] appears, read: receptor binding, read-out: 5-HT reuptake binding pKi (converted).

The structures appear in SMILES notation. Structures can show the parent of a compound that is named as a salt. Where two headings read alike, the source gives them in different places.

T3 sequence (P31652 whole entry): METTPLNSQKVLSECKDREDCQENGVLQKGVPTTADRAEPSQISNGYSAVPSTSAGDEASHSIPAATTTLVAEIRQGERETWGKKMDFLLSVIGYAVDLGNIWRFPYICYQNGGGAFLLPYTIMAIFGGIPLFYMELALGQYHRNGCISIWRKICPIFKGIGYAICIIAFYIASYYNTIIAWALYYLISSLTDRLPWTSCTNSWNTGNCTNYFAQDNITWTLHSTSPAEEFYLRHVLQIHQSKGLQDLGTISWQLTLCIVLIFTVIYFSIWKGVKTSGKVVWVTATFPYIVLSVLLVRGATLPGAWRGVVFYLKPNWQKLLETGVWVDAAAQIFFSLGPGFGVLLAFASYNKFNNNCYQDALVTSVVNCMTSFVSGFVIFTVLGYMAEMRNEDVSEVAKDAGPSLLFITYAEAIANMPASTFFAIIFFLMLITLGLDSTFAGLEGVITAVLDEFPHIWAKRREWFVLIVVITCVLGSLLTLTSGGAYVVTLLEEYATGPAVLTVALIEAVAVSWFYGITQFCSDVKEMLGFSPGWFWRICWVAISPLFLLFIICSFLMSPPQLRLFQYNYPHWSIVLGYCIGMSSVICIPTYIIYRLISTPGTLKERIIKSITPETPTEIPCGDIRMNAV
T2 sequence (P14416 whole entry): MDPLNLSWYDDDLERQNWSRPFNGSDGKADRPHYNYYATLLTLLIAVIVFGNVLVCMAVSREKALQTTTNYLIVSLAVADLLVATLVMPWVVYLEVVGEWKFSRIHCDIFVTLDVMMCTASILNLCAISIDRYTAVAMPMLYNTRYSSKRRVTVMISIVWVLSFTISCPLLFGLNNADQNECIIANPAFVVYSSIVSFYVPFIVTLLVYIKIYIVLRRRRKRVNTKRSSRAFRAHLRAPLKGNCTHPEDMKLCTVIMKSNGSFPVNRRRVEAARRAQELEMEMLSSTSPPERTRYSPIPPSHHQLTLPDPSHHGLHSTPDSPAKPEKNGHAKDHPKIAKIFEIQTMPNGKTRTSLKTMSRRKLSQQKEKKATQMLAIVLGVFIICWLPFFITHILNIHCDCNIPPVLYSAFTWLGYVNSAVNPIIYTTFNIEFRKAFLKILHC
T1 sequence (P61169 whole entry): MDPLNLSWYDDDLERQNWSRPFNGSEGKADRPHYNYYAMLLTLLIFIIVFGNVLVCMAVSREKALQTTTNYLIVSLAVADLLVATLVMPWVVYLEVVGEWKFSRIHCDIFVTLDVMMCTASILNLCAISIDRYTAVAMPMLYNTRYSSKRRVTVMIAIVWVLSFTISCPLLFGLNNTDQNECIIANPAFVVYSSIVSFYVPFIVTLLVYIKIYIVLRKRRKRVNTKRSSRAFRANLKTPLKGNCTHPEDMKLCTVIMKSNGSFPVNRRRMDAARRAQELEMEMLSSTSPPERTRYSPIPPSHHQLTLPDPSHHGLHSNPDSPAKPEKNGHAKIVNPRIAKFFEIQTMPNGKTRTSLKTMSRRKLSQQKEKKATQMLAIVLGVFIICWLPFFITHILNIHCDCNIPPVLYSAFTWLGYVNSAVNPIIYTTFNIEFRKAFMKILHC

Take `C[C@@H]1CN(c2cccc3[nH]c(=O)oc23)C[C@H](C)N1CCCc1c[nH]c2ccc(F)cc12` (as salt: HCl) [compound 1]: the melting point is 270 to 275 °C.

For `CC(CCc1c[nH]c2ccc(F)cc12)N1CCN(c2cccc3c2oc(=O)n3C)CC1` (centres unmarked) (as salt: HCl) [compound 2], the melting point was in the range of 207 to 209 °C.

With `CC(CCN1CCN(c2cccc3c2oc(=O)n3C)CC1)c1c[nH]c2ccc(F)cc12` (centres unmarked) (as salt: HCl) [compound 3], the melting point was 100 to 140 °C (dec.).

Regarding `Cn1cc(CCCN2CCN(c3cccc4c3oc(=O)n4C)CC2)c2cc(F)ccc21` (as salt: HCl) [compound 8], the melting point is > 225 °C (dec.).

In turn, `Cn1c(=O)oc2c(N3CCN(CCCCc4c[nH]c5ccc(F)cc45)CC3)cccc21` (as salt: HCl) [compound 11] displayed a melting point of 254 to 256 °C.

Turning to `Cn1c(=O)oc2c(N3CCN(CCCCc4c[nH]c5ccc(C#N)cc45)CC3)cccc21` (as salt: HCl) [compound 12], the melting point lay in the range of 213 to 215 °C.

Molecule `Cn1c(=O)oc2c(N3CCN(CCCc4c[nH]c5ccc(F)cc45)CC3)cc(F)cc21` (as salt: HCl) [compound 15] came in with a melting point of 246 to 249 °C.

For `CCn1c(=O)oc2c(N3CCN(CCCc4c[nH]c5ccc(F)cc45)CC3)cccc21` (as salt: HCl) [compound 16], the melting point was 100 to 140 °C.

As to `C[C@@H]1CN(c2cccc3[nH]c(=O)oc23)C[C@H](C)N1CCCc1c[nH]c2ccc(F)cc12` [compound 1], the values for the Ki at dopamine-D2 receptors (setting [2]) and at serotonin reuptake sites (setting [3]) were 20 nM and 5.01 nM, respectively. The “Dopamine-D2 cAMP accum ∈ (intrinsic activity)” value (“Dopamine-D2 cAMP accum ∈” below) in data set [1] came to 0.13.

On to `CC(CCc1c[nH]c2ccc(F)cc12)N1CCN(c2cccc3c2oc(=O)n3C)CC1` (centres unmarked) [compound 2], for which the Ki is 158 nM on dopamine-D2 receptors (setting [2]) and 1 nM on serotonin reuptake sites (setting [3]).

Consider `CC(CCN1CCN(c2cccc3c2oc(=O)n3C)CC1)c1c[nH]c2ccc(F)cc12` (centres unmarked) [compound 3], for which the Ki at dopamine-D2 receptors (setting [2]) is 100 nM; on serotonin reuptake sites (setting [3]), 0.794 nM. In addition, the “Dopamine-D2 cAMP accum ∈” value in data set [1] is 0.43.

`CC(Cc1c[nH]c2ccc(F)cc12)CN1CCN(c2cccc3c2oc(=O)n3C)CC1` (centres unmarked) [compound 4] came in with a melting point of 166 to 168 °C. Also, at dopamine-D2 receptors (setting [2]), the Ki was 7.94 nM. Besides, in data set [1], the “Dopamine-D2 cAMP accum ∈” value is on record as 0.22. Also, the Ki at serotonin reuptake sites (setting [3]) is 2.51 nM.

`Cc1cc(Cl)cc2c(CCCN3CCN(c4cccc5c4oc(=O)n5C)CC3)c[nH]c12` [compound 6] returned a melting point of 159 to 162 °C. In addition, in data set [1], the “Dopamine-D2 cAMP accum ∈” value was 0.52.

For the molecule `Cn1cc(CCCN2CCN(c3cccc4c3oc(=O)n4C)CC2)c2cc(Cl)ccc21` [compound 7], the melting point was 140 to 142 °C. On dopamine-D2 receptors (setting [2]), the Ki is 200 nM. Besides, in data set [1], the “Dopamine-D2 cAMP accum ∈” value came to 0.15. In addition, the Ki at serotonin reuptake sites (setting [3]) is 2.51 nM.

As to `Cn1cc(CCCN2CCN(c3cccc4c3oc(=O)n4C)CC2)c2cc(F)ccc21` [compound 8], the Ki on dopamine-D2 receptors (setting [2]) is 31.6 nM; at serotonin reuptake sites (setting [3]), more than 10 nM. For the same molecule, the “Dopamine-D2 cAMP accum ∈” value in data set [1] amounted to 0.44.

In turn, `Cn1c(=O)oc2c(N3CCN(CCCc4c[nH]c5ccc(F)cc45)CC3)cccc21` [compound 9] returned a melting point of 135 to 137 °C. The Ki on dopamine-D2 receptors (setting [2]) was 79.4 nM. Further, the “Dopamine-D2 cAMP accum ∈” value in data set [1] is listed as 0.12. Further, the Ki at serotonin reuptake sites (setting [3]) is 7.94 nM.

For `Cn1c(=O)oc2c(N3CCN(CCCc4c[nH]c5ccc(C#N)cc45)CC3)cccc21` [compound 10], the melting point lay in the range of 151 to 152 °C. Also, on dopamine-D2 receptors (setting [2]), the Ki was 126 nM. In addition, the “Dopamine-D2 cAMP accum ∈” value in data set [1] is 0.66. Besides, at serotonin reuptake sites (setting [3]), the Ki is 3.98 nM.

As to `Cn1c(=O)oc2c(N3CCN(CCCCc4c[nH]c5ccc(F)cc45)CC3)cccc21` [compound 11], the Ki on dopamine-D2 receptors (setting [2]) is 25.1 nM; on serotonin reuptake sites (setting [3]), more than 10 nM. The “Dopamine-D2 cAMP accum ∈” value in data set [1] turned out to be 0.72.

Take `Cn1c(=O)oc2c(N3CCN(CCCCc4c[nH]c5ccc(C#N)cc45)CC3)cccc21` [compound 12]: the figures for the Ki at dopamine-D2 receptors (setting [2]) and at serotonin reuptake sites (setting [3]) were 7.94 nM and less than 1 nM, respectively. Moreover, the “Dopamine-D2 cAMP accum ∈” value in data set [1] stood at 0.75.

`Cn1c(=O)oc2c(N3CCN(CCc4c[nH]c5ccc(F)cc45)CC3)cccc21` [compound 13] came in with a melting point of 198 to 200 °C. Also, on dopamine-D2 receptors, the Ki is 3.98 nM. Moreover, in data set [1], the “Dopamine-D2 cAMP accum ∈” value came to 0.22. This molecule also gave a Ki at serotonin reuptake sites of 3.16 nM.

For `Cn1c(=O)oc2c(N3CCN(CCCc4c[nH]c5ccc(F)cc45)CC3)cc(F)cc21` [compound 15], the results for the Ki on dopamine-D2 receptors (setting [2]) and at serotonin reuptake sites (setting [3]) were 79.4 nM and 0.316 nM, respectively.

Turning to `CCn1c(=O)oc2c(N3CCN(CCCc4c[nH]c5ccc(F)cc45)CC3)cccc21` [compound 16], the Ki on dopamine-D2 receptors (setting [2]) was 39.8 nM; at serotonin reuptake sites (setting [3]), less than 1 nM. In addition, the “Dopamine-D2 cAMP accum ∈” value in data set [1] came to 0.15.

Regarding `Fc1ccc2[nH]cc(CCCN3CCN(c4cccc5[nH]c(=S)oc45)CC3)c2c1` [compound 17], the melting point was 238 to 240 °C (dec.). Also, at dopamine-D2 receptors (setting [2]), the Ki is 15.8 nM. Further, the “Dopamine-D2 cAMP accum ∈” value in data set [1] amounted to 0.32. In addition, on serotonin reuptake sites (setting [3]), the Ki was 5.01 nM.

The term melting point denotes the temperature of the solid-liquid transition.
